# Experimental data reported in article PMC9939304 (Acta Pharmaceutica Sinica. B, 2022).
# Where two headings read alike, the source gives them in different places. Marks after values point to notes of the source that are not given here.
# Tests used:
# [1] = endogenous thiamine; BDL rats
# [2] = thiamine 20 μg/mL perfusion
# OCT2 protein [3] = assay: OCT2 protein expression in Caco-2 cells; assay type: cell-based, human; details: 48 h; for Expressions of OCT2 protein, 5 bile salts tested: CDCA 100, CA 100, DCA 50, HDCA 100, GCA 100 μmol/L; for Expressions of OCT2 protein by FXR agonists: CDCA 100, bilirubin 50, GW4064 1 μmol/L
# Oct3 = target: T1, Oct3 (Rattus norvegicus, UniProt O88446); details: estradiol 1 μmol/L with metformin 50 μg/mL; Sham rats
# T1 sequence (O88446 1-551): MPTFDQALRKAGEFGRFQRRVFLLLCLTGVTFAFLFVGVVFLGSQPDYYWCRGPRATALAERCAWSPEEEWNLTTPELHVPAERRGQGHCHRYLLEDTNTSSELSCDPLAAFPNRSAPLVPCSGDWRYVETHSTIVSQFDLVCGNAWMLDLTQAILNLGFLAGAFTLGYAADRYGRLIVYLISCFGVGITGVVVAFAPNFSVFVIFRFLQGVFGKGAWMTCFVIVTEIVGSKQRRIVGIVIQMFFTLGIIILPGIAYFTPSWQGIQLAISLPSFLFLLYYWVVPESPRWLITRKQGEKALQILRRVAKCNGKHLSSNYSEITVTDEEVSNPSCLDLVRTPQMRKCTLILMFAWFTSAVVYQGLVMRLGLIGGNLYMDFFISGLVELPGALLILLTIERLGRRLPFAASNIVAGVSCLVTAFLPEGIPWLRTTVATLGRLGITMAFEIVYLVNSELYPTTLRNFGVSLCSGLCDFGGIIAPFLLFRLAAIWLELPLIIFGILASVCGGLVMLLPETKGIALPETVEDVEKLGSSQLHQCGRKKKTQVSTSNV
# rat kidney slices = assay: Uptake of metformin by precision-cut kidney slices; assay type: in vitro ADME; details: metformin 50 μg/mL, 15 min, 37 °C; slices from BDL rats
# [4] = oral metformin 40 mg/kg
# FXR [5] = target: T2, FXR (Homo sapiens, UniProt Q96RI1); assay type: cell-based; details: HepG2 cell
# T2 sequence (Q96RI1 1-486): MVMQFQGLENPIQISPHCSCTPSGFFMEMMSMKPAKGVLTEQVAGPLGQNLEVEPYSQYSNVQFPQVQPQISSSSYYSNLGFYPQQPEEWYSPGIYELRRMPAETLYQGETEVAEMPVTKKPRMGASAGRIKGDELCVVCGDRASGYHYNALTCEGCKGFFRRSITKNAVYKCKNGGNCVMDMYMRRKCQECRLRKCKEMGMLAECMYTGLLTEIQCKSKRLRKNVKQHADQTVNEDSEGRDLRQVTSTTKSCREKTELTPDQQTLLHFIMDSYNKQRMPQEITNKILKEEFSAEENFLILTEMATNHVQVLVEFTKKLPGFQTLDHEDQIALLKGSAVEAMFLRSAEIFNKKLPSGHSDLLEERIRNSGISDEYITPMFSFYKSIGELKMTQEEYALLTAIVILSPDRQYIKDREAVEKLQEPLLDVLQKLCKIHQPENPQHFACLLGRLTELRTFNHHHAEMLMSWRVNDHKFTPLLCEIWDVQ
# Oct2 = assay type: in vivo, rat; details: stigmasterol 200 mg/kg qd plus CDCA 180 mg/kg qd oral, 14 days
# [6] = assay type: in vivo, rat; details: stigmasterol 200 mg/kg qd plus CDCA 180 mg/kg qd oral, 14 days
# Oct2/3 [7] = target: T3, Oct2/3 (Rattus norvegicus, UniProt Q9R0W2); details: corticosterone 5 mg/kg ip, normal rats; iv metformin 10 mg/kg
# T3 sequence (Q9R0W2 1-555): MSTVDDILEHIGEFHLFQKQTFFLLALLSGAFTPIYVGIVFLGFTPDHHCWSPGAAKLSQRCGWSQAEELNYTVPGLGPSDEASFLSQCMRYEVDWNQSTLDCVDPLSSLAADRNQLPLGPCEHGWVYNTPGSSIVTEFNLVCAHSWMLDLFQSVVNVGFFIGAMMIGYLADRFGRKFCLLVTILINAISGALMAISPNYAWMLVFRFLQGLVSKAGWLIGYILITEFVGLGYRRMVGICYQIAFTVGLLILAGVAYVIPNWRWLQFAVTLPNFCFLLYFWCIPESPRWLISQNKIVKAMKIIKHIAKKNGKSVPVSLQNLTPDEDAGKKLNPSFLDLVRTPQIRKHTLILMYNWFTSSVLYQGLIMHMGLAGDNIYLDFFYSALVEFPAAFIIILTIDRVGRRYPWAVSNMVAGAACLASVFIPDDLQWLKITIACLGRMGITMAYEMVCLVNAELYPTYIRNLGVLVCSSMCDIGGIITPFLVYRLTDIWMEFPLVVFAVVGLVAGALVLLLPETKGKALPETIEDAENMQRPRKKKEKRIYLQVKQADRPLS
# Oct2/3 [8] = details: Sham rats
# OCT1 protein [9] = assay: OCT1 protein expression in HepG2 cells; assay type: cell-based, human; details: for Concentration-dependent effect on expressions of OCT1 protein: 48 h, CDCA 25, 50, 100 μmol/L, bilirubin 1, 10, 50 μmol/L
# OCT2 protein [10] = assay: OCT2 protein expression in HK-2 cells; assay type: cell-based, human; details: 48 h; for Expressions of OCT2 protein by FXR agonists: CDCA 100, bilirubin 50, GW4064 1 μmol/L
# Oct2 protein [11] = assay: Oct2 protein expression in primarily cultured rat hepatocytes; assay type: cell-based; details: for Expressions of Oct2 protein: CDCA, bilirubin or GW4064
# Oct1 protein [12] = assay: Oct1 protein expression in primarily cultured rat hepatocytes; assay type: cell-based; details: for Expressions of Oct1 protein: CDCA, bilirubin or GW4064
# FXR [13] = target: T2, FXR; assay type: cell-based; details: HK-2 cells
# FXR protein = FXR protein expression in HK-2 cells; assay type: cell-based, human
# Mate1 = assay: Renal Mate1 protein expression in treated rats; assay type: in vivo, rat; details: 14 days: CDCA 180 mg/kg qd oral
# Oct1 = Oct1 (Rattus norvegicus, UniProt Q63089); assay: in vitro; details: probe metformin (100 μmol/L)
# [14] = CON rats of CDCA study (Table S5)
# Chain of Oct1 (Q63089 whole entry): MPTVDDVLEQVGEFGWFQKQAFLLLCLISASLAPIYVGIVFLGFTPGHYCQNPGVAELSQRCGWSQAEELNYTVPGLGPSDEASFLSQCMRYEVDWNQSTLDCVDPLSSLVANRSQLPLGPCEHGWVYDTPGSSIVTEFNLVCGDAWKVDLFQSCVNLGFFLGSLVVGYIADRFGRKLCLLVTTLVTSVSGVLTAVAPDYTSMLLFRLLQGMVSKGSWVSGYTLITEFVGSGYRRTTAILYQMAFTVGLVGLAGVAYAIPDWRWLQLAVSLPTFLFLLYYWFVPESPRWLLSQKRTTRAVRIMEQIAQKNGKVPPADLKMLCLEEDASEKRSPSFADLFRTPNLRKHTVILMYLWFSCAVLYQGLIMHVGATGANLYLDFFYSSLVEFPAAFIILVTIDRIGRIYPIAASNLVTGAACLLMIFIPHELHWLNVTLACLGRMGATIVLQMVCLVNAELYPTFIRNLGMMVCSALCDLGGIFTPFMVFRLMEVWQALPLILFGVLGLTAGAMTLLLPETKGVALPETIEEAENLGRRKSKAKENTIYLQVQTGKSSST
compound,measurement,setting,value
Cc1ncc(C[n+]2csc(CCO)c2C)c(N)n1 [thiamine],"Urinary excreted amount of thiamine during 6 h, BDL relative to Sham",[1],187 % of Sham rats
same,Peff values of thiamine in BDL rats vs Sham,[2],significantly decrease
"C[C@H](CCC(=O)O)[C@H]1CC[C@H]2[C@@H]3[C@H](O)C[C@@H]4C[C@H](O)CC[C@]4(C)[C@H]3C[C@H](O)[C@]12C [CA, Cholic acid]","Expressions of OCT2 protein, 5 bile salts tested",OCT2 protein [3],only CDCA remarkably induces
C[C@]12CC[C@@H]3c4ccc(O)cc4CC[C@H]3[C@@H]1CC[C@@H]2O [estradiol],Effect on Peff of metformin,Oct3,does not affect
"C[C@H](CCC(=O)O)[C@H]1CC[C@H]2[C@@H]3CC[C@@H]4C[C@H](O)CC[C@]4(C)[C@H]3C[C@H](O)[C@]12C [DCA, Eeoxycholic acid]","Expressions of OCT2 protein, 5 bile salts tested",OCT2 protein [3],only CDCA remarkably induces
"C[C@H](CCC(=O)O)[C@H]1CC[C@H]2[C@@H]3C[C@H](O)[C@@H]4C[C@H](O)CC[C@]4(C)[C@H]3CC[C@]12C [HDCA, Hyodeoxycholic acid]","Expressions of OCT2 protein, 5 bile salts tested",OCT2 protein [3],only CDCA remarkably induces
CN(C)C(=N)N=C(N)N [metformin],V1,"BDL rat, same value as Sham",102.99 mL
same,V1,"Sham rat, 250 g, estimated from original data",102.99 ^j mL
same,"Uptake of metformin in renal slice, BDL vs Sham",rat kidney slices,significantly increases
same,AUC,[4]; CDCA-treated rats (Table S5),906.85 ± 52.16 µg·min/mL
same,Cmax,[4]; CDCA-treated rats (Table S5),4360 ± 380 ng/mL
same,AUC,[4]; [14],707.20 ± 30.01 µg·min/mL
same,Cmax,[4]; [14],3190 ± 120 ng/mL
CC[C@H](/C=C/[C@@H](C)[C@H]1CC[C@H]2[C@@H]3CC=C4C[C@@H](O)CC[C@]4(C)[C@H]3CC[C@]12C)C(C)C [stigmasterol],Effect on upregulation of SHP and FGF19 mRNA by CDCA,FXR [5]; co-administration of stigmasterol with CDCA,significantly reversed
same,"mRNA expressions of SHP and FGF19, stigmasterol alone",FXR [5]; stigmasterol 100 μmol/L,little affects
same,Effect on the increased expressions of intestinal Oct2 protein by CDCA,Oct2,attenuates
same,Effect on CDCA-induced increase in levels of blood thiamine,[6],attenuated
C[C@]12C[C@H](O)[C@H]3[C@@H](CCC4=CC(=O)CC[C@@]43C)[C@@H]1CC[C@@H]2C(=O)CO [corticosterone],In vivo hepatic uptake clearance of metformin with corticosterone,Oct2/3 [7],50 % of CON rats
same,Intestinal absorption (Peff) of metformin with inhibitor,Oct2/3 [8]; corticosterone 4 μmol/L with metformin 50 μg/mL,60 % of control rats
same,Effect on Peff values of thiamine,Oct2/3 [8]; corticosterone 4 μmol/L with thiamine 20 μg/mL,significantly decrease
"C[C@H](CCC(=O)NCC(=O)O)[C@H]1CC[C@H]2[C@@H]3[C@H](O)C[C@@H]4C[C@H](O)CC[C@]4(C)[C@H]3C[C@H](O)[C@]12C [GCA, Glycocholic acid]","Expressions of OCT2 protein, 5 bile salts tested",OCT2 protein [3],only CDCA remarkably induces
CC(C)c1onc(-c2c(Cl)cccc2Cl)c1COc1ccc(/C=C/c2cccc(C(=O)O)c2)c(Cl)c1 [GW4064],Expressions of OCT1 protein,OCT1 protein [9]; GW4064,also downregulates
same,Expressions of OCT2 protein by FXR agonists,OCT2 protein [3],induce expressions of OCT2 protein
same,Expressions of OCT2 protein by FXR agonists,OCT2 protein [10],increase expressions of OCT2 protein
same,Expressions of Oct2 protein,Oct2 protein [11],upregulate expressions of Oct2 protein
same,Expressions of Oct1 protein,Oct1 protein [12],downregulate expressions of Oct1 protein
C=CC1=C(C)/C(=C/c2[nH]c(Cc3[nH]c(/C=C4\NC(=O)C(C)=C4C=C)c(C)c3CCC(=O)O)c(CCC(=O)O)c2C)NC1=O [bilirubin],Concentration-dependent effect on expressions of OCT1 protein,OCT1 protein [9],concentration-dependently downregulate
same,Expressions of OCT2 protein by FXR agonists,OCT2 protein [10],increase expressions of OCT2 protein
same,Expressions of Oct2 protein,Oct2 protein [11],upregulate expressions of Oct2 protein
same,Expressions of SHP and FGF19 mRNA,FXR [13],significantly upregulate
same,Expressions of Oct1 protein,Oct1 protein [12],downregulate expressions of Oct1 protein
same,Expressions of FXR protein,FXR protein,can induce
"C[C@H](CCC(=O)O)[C@H]1CC[C@H]2[C@@H]3[C@H](O)C[C@@H]4C[C@H](O)CC[C@]4(C)[C@H]3CC[C@]12C [CDCA, chenodeoxycholic acid]",Concentration-dependent effect on expressions of OCT1 protein,OCT1 protein [9],concentration-dependently downregulate
same,Concentration-dependent effect on expressions of OCT2,"OCT2 protein [3]; CDCA 25, 50, 100 μmol/L, bilirubin 10, 25, 50 μmol/L",concentration-dependently increase
same,"Expressions of OCT2 protein, 5 bile salts tested",OCT2 protein [3],remarkably induces
same,Expressions of OCT2 protein by FXR agonists,OCT2 protein [3],induce expressions of OCT2 protein
same,Expressions of OCT2 protein by FXR agonists,OCT2 protein [10],increase expressions of OCT2 protein
same,Expressions of Oct2 protein,Oct2 protein [11],upregulate expressions of Oct2 protein
same,Expressions of renal Mate1 protein in treated rats,Mate1,unaltered
same,Expressions of Oct1 protein,Oct1 protein [12],downregulate expressions of Oct1 protein
"C[C@H](CCC(=O)NCC(=O)O)[C@H]1CC[C@H]2[C@@H]3[C@@H](O)[C@@H](O)[C@@H]4C[C@H](O)CC[C@]4(C)[C@H]3CC[C@]12C [MCA, glycine-β-muricholic acid]","Effect on decreases in OCT1 by CDCA, bilirubin and GW4064",OCT1 protein [9]; MCA,remarkably reversed
same,"Effect on induction of OCT2 protein by bilirubin, CDCA and GW4064",OCT2 protein [3]; MCA 100 μmol/L,remarkably attenuated
same,"Effect on increase of OCT2 protein by CDCA, bilirubin and GW4064",OCT2 protein [10]; MCA 100 μmol/L,reversed
same,"Effect on upregulation of Oct2 protein by CDCA, bilirubin and GW4064",Oct2 protein [11]; MCA,remarkably attenuated
same,Expressions of FGF19 mRNA,FXR [13]; MCA,slight inhibits
same,Expressions of SHP mRNA,FXR [13]; MCA,significantly downregulates
same,"Effect on downregulation of Oct1 protein by CDCA, bilirubin and GW4064",Oct1 protein [12]; MCA,remarkably attenuated
NCCc1ccc(O)c(O)c1 [dopamine],"inhibition at 1.5 min, 20 μmol/L",Oct1; primary hepatocytes from BDL rats,25.2%
same,"inhibition at 1.5 min, 20 μmol/L",Oct1; primary hepatocytes from Sham rats,58.7%
